In patent publication US9353048B2, “Compound as KCNQ potassium channel agonist, preparation method therefor and use thereof” (SHANGHAI INSTITUTE OF MATERIA MEDICA, CHINESE ACADEMY OF …, priority 2011, dated 2016):
Several values for one entry are separate records, joined by “and”; a condition that tells them apart may be missing. Equal values may be shown once. Entries after “also recorded” stand apart in the source; their conditions may differ. Where a name gives a salt, the structure may show the parent alone. Marks after values point to notes of the source that are not given here.

Tests used:
KCNQ channels = assay: Whole-cell voltage-clamp electrophysiological recording in CHO cells transfected with KCNQ channels; format: cell-based; settings: for I/I0: activation multiple, maximum induced current at −10 mV testing voltage after administration (10 μM) vs before, >1 activating, <1 inhibiting; for ΔV1/2: shift of V1/2 of current activation curve, negative sign = left-ward shift, CHO cells
Description: The formulation of culture fluid for Chinese hamster […] (CHO) (Culture Collection of Chinese Academy of Sciences): 50/50 DMEM/F-12 (Cellgro, Mamassas, Va.), 10% fetal bovine serum (FBS) (Gibco, Australia) and 2 mM […] (Invitrogen). […] Lipofectamine2000™ agent (Invitrogen) was used for Transfection according to the protocol thereof. […] After cotransfection with GFP (green fluorescent protein), transfected cells could be determined under a fluorescence microscopy.
Whole-cell voltage-clamp recording was performed by using Axopatch-200B amplifier (Molecular Devices, Sunnyvale, Calif.) at room temperature. Borosilicate glass capillary tubes (World Precision Instruments, Sarasota, Fla.) were drawn into electrodes. The electric resistance of the electrodes filled with an intracellular fluid is 3 to 5 MΩ. […] During the recording, an extracellular fluid was continuously perfused by using a BPS perfusion system (ALA Scientific Instruments, Westburg, N.Y.). The formulation of the extracellular fluid was as follows: 140 mM NaCl, 5 mM KCl, 2 mM CaCl2, 1.5 mM MgCl2, 10 mM HEPES and 10 mM glucose (the pH value of the extracellular fluid was adjusted to 7.4 with NaOH). […] Resistors were connected in series to compensate 60 to 80% of signal loss. At present, multivoltage scheme was generally adopted, wherein the clamp voltage was set at −100 mV. Current was induced in cells by a series of 2000 ms stimulating voltage (from −90 mV up to +50 mV, with interval of 10 mV).
In the following table, V1/2 is the voltage at which 50% of cells were activated, ΔV1/2 is amount of a left-ward shift of V1/2, negative sign (−) represents a left-ward shift of the current activation curve and positive sign (+) represents a right-ward shift of the curve. I/I0 is the activation multiple, wherein, I0 is the maximum induced current produced under stimulation of −10 mV testing voltage, I is the maximum induced current produced under stimulation of −10 mV testing voltage after administration (10 μM), I/I0>1 represents activating activity, and I/I0<1 represents inhibiting activity. N is the number of tested cells. NT represents non-tested.

[1] = system: Convulsion Induced by Pentylenetetrazole (PTZ); assay: Convulsion induced by pentylenetetrazole (PTZ), compounds by gastric lavage, C57BL/6J mice; format: in vivo; settings: 30 mg/kg gastric lavage; for Latency period of clonus / Latency period of whole-body tonic seizures / Mortality rate / Incidence rate of convulsion: PTZ 80 mg/kg s.c. 1 h later; for Incidence rate of convulsion: observed 60 min; for anti-convulsive effect (in words): PTZ-induced convulsion
Description: The compounds to be tested were administrated to animals by gastric lavage (30 mg/kg); one hour later, pentylenetetrazole was administrated by subcutaneous injection (PTZ 80 mg/kg); and response of animals were observed within a period of 60 min.

in vivo = settings: mouse, 20 mg/kg
Description: Two hours after administration, animal were fed uniformly. Specific arrangement was as following table.
After administration by gastric lavage or intravenous injection, mice were sacrificed by cutting abdominal aorta at time points set as the above with 3 mice for each time point. 0.5 mL of whole blood was collected for each animal, placed into a heparinized test tube and subjected to centrifugation at 3000 rpm to separate plasma, which was then cryopreserved in a −20° C. refrigerator. After the animals were sacrificed, their whole brain was collected, washed with ice-cooled physiological saline to remove residual blood. Then the residual liquid was absorbed to dryness. The treated brain was labeled and cryopreserved in a −20° C. refrigerator.

[2] = Solubility in water (treatment of samples)
[3] = system: Animal Models Induced by PTZ (Pentylenetetrazole); assay: PTZ test, compounds by intraperitoneal injection, KM mice; format: in vivo; settings: for Incidence rate of convulsion: PTZ 100 mg/kg s.c. 30 min later, observation 1 h
Description: Compounds to be tested were administrated by intraperitoneal injection (10 mg/kg, 5 mg/kg, 2.5 mg/kg, 0.1 ml/10 g).

[4] = system: Animal Models Induced by PTZ; assay: PTZ test, compounds orally administrated (gastric lavage), KM mice; settings: for Incidence of tonic fore limb extension / Incidence of tonic hind limb extension / Latency period of clonus / Latency period of fore limb extension / Mortality rate / Incidence rate of clonus: 30 mg/kg gastric lavage; for Incidence rate of clonus: PTZ 100 mg/kg s.c. 1 h later, observation 1 h; for effect in PTZ test (in words): gastric lavage
Description: Response of animals were observed immediately and recorded within a period of 1 h.

[5] = system: Animal Models Induced by MES; assay: MES test, compounds orally administrated (gastric lavage), KM mice; format: in vivo; settings: for Incidence rate of convulsion / Protection rate of compounds: 30 mg/kg gastric lavage, MES 1 hour later; for effect in MES test (in words): gastric lavage
Description: (§1) One time of electrical stimulation was applied to animals through ear clip electrodes, and a convulsion characterized by a tonic hind limb extension was observed. One day before the test, animals were screened in the above procedure to record the values of MES.
1 hour later, MES was applied according to parameters set the last day, and response of animals were observed and recorded immediately.

[6] = system: Animal Models Induced by MES (Maximum Electroshock); assay: MES test, compounds by intraperitoneal injection, KM mice; format: in vivo; settings: 10 mg/kg i.p.; for Mortality rate / Incidence of convulsion: MES 30 min later; for Incidence of convulsion: tonic hind limb extension
Source text: as §1

C#CCN(Cc1ccc(F)cc1)c1ccc(NC(=O)OC)cc1 [Compound K9, methyl 4-(N-parafluorobenzyl-N-propargyl-imino)-aniline formate]
I/I0 (KCNQ channels): 3.27 ± 0.10
ΔV1/2 (KCNQ channels): −24.21 ± 2.4 mV
Latency period of clonus [1]: 351 ± 84.3 s
Latency period of whole-body tonic seizures [1]: 1382 ± 339 s
Mortality rate [1]: 4/10
Incidence rate of convulsion [1]: 4/10
anti-convulsive effect (in words) [1]: comparable anti-convulsive effect
Kp (in vivo; male, KM): 1.9
bioavailability (in vivo; male, KM): 26%
AUC(0-t) (in vivo; male, KM, iv): 7180 ng·h/mL
Kp (in vivo; male, KM, iv): 1.5
clearance (in vivo; male, KM, iv): 46.3 mL/min/kg
AUC(0-t) (in vivo; male, KM, po): 1860 ng·h/mL
Cmax (in vivo; male, KM, po): 2200 ng/mL and 4420 ng/g
half-life (in vivo; male, KM, po): ~1.2 h
area under the concentration-time curve (AUC0-t) in brain tissue (in vivo): 3565 ng·h/g
area under the concentration-time curve (AUC0-t) of brain tissue (in vivo; iv): 10694 ng·h/g
solubility in water (in words) [2]: can not be easily dissolved in water

CCOC(=O)Nc1ccc(NCc2ccc(F)cc2)cc1N [Retigabine, retigabine, reference compound]
Incidence of tonic fore limb extension ([3]; 2.5 mg/kg i.p.): 5/10
Incidence of tonic hind limb extension ([3]; 2.5 mg/kg i.p.): 1/10**
Latency period of clonus ([3]; 2.5 mg/kg i.p.): 179 ± 60 s
Latency period of tonic hind limb ([3]; 2.5 mg/kg i.p.): 827 s
Mortality rate ([3]; 2.5 mg/kg i.p.): 7/10
Incidence rate of convulsion ([3]; 2.5 mg/kg i.p.): 10/10
Incidence of tonic fore limb extension ([3]; 5 mg/kg i.p.): 4/10
Incidence of tonic hind limb extension ([3]; 5 mg/kg i.p.): 2/10*
Latency period of clonus ([3]; 5 mg/kg i.p.): 184 ± 40 s
Latency period of tonic hind limb ([3]; 5 mg/kg i.p.): 883 ± 151 s
Mortality rate ([3]; 5 mg/kg i.p.): 5/10
Incidence rate of convulsion ([3]; 5 mg/kg i.p.): 10/10
Incidence of tonic hind limb extension ([3]; 10 mg/kg i.p.): 4/12*
Latency period of clonus ([3]; 10 mg/kg i.p.): 239 ± 113 s
Latency period of tonic hind limb ([3]; 10 mg/kg i.p.): 1100 ± 319 s
Mortality rate ([3]; 10 mg/kg i.p.): 2/12**
Incidence rate of convulsion ([3]; 10 mg/kg i.p.): 10/10
sedative effect ([3]; intraperitoneal injection): some sedative effect
Latency period of clonus [1]: No typical
Latency period of whole-body tonic seizures [1]: 1472 ± 961 s
Mortality rate [1]: 4/10
Incidence rate of convulsion [1]: 5/10
anti-convulsive effect (in words) [1]: comparable anti-convulsive effect
behaviour of animals after administration ([1]; returned to normal after 20 min): quite and less active
solubility in water (in words) [2]: can be easily dissolved in water
Incidence of tonic fore limb extension [4]: 3/12**
Incidence of tonic hind limb extension [4]: 0/12**
Latency period of clonus [4]: 177 ± 70 s
Latency period of fore limb extension [4]: 1063 ± 284 s
Mortality rate [4]: 0/12**
Incidence rate of clonus [4]: 12/12
effect in PTZ test (in words) [4]: obviously reduce the incidence rate of convulsion and mortality rate; also recorded: significantly reduce the incidence rate of convulsion and mortality rate
Incidence rate of convulsion [5]: 5/13***
Protection rate of compounds [5]: 61.5%***
effect in MES test (in words) [5]: significantly inhibiting the incidence of the grand mal seizure; also recorded: comparable effect
Mortality rate [6]: 0
Incidence of convulsion [6]: 4/11**

C#CCN(Cc1ccc(F)cc1)c1ccc(NC(=O)OCC)c(N)c1 [Compound K21, ethyl 2-amino-4-(N-parafluorobenzyl-N-propargyl-imino)-aniline formate]
Incidence of tonic fore limb extension ([3]; 2.5 mg/kg i.p.): 2/10
Incidence of tonic hind limb extension ([3]; 2.5 mg/kg i.p.): 0/10***
Latency period of clonus ([3]; 2.5 mg/kg i.p.): 184 ± 42 s
Mortality rate ([3]; 2.5 mg/kg i.p.): 1/10**
Incidence rate of convulsion ([3]; 2.5 mg/kg i.p.): 9/10
Incidence of tonic fore limb extension ([3]; 5 mg/kg i.p.): 3/10
Incidence of tonic hind limb extension ([3]; 5 mg/kg i.p.): 0/10***
Latency period of clonus ([3]; 5 mg/kg i.p.): 238 ± 54 s
Mortality rate ([3]; 5 mg/kg i.p.): 1/10**
Incidence rate of convulsion ([3]; 5 mg/kg i.p.): 10/10
Incidence of tonic hind limb extension ([3]; 10 mg/kg i.p.): 0/12***
Mortality rate ([3]; 10 mg/kg i.p.): 0/12***
Incidence rate of convulsion ([3]; 10 mg/kg i.p.): 12/12
sedative effect ([3]; intraperitoneal injection): some sedative effect
anti-convulsive effect compared with retigabine (in words) ([3]; intraperitoneal injection, same dosage, PTZ and MES tests): slightly stronger than that of retigabine
I/I0 (KCNQ channels): 1.53 ± 0.15
ΔV1/2 (KCNQ channels): −47.9 ± 3.5 mV
solubility in water (in words) [2]: can not be easily dissolved in water
Incidence of tonic fore limb extension [4]: 5/12
Incidence of tonic hind limb extension [4]: 0/12**
Latency period of clonus [4]: 148 ± 37 s
Latency period of fore limb extension [4]: 1561 ± 690 s
Mortality rate [4]: 3/12
Incidence rate of clonus [4]: 12/12
effect in PTZ test (in words) [4]: significantly inhibit tonic seizures
Incidence rate of convulsion [5]: 2/13***
Protection rate of compounds [5]: 84.6%***
effect in MES test (in words) [5]: significantly inhibiting the incidence of the grand mal seizure
grand mal seizure in MES test (in words) [6]: completely avoided the grand mal seizure
Mortality rate [6]: 0
Incidence of convulsion [6]: 2/10***
